According to ChEMBL document CHEMBL1131284, “Hydroxamate-based inhibitors of low affinity IgE receptor (CD23) processing” (Bioorg Med Chem Lett, 1998):

Target: T1, Interstitial collagenase (Homo sapiens, UniProt P03956)
T1 sequence (P03956 whole entry): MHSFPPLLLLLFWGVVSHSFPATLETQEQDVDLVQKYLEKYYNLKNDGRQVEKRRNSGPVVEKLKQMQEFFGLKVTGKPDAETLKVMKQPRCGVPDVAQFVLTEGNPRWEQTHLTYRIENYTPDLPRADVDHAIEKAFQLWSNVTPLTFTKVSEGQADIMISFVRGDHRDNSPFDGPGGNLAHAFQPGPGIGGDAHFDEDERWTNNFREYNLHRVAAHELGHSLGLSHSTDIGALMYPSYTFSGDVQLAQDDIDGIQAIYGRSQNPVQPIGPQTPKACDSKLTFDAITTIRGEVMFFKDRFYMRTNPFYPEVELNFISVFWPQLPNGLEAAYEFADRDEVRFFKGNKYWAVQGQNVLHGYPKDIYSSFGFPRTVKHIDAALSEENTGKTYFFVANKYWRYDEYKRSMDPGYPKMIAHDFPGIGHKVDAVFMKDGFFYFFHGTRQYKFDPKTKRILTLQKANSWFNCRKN
Test: Inhibitory activity towards human recombinant fibroblast collagenase

SMILES	IC50
O=C(CCC(=O)N[C@@H](Cc1ccccc1)C(=O)NCc1ccccc1)NO	> 10 µM
O=C(C[C@@H](CCC1CCCCC1)C(=O)N[C@@H](Cc1ccccc1)C(=O)NCc1ccccc1)NO	> 10 µM
CC(C)S[C@H](CC(=O)NO)C(=O)N[C@@H](Cc1ccccc1)C(=O)NCc1ccccc1	1.9 µM
O=C(C[C@H](C(=O)N[C@@H](Cc1ccccc1)C(=O)NCc1ccccc1)C1CCCCC1)NO	1.5 µM
O=C(C[C@@H](CC1CCCC1)C(=O)N[C@@H](Cc1ccccc1)C(=O)NCc1ccccc1)NO	0.02 µM
O=C(C[C@H](C(=O)N[C@@H](Cc1ccccc1)C(=O)NCc1ccccc1)c1ccc(-c2ccccc2)cc1)NO	> 10 µM
O=C(C[C@@H](CC1CCCCC1)C(=O)N[C@@H](Cc1ccccc1)C(=O)NCc1ccccc1)NO	4.6 µM
C[C@H](CC(=O)NO)C(=O)N[C@@H](Cc1ccccc1)C(=O)NCc1ccccc1	> 10 µM

Next, values leading:

IC50	SMILES
> 10 µM	CN(C)C[C@H](CC(=O)NO)C(=O)N[C@@H](Cc1ccccc1)C(=O)NCc1ccccc1
> 10 µM	O=C(C[C@@H](Cc1ccc2ccccc2c1)C(=O)N[C@@H](Cc1ccccc1)C(=O)NCc1ccccc1)NO
7 µM	O=C(C[C@@H](Cc1ccccc1)C(=O)N[C@@H](Cc1ccccc1)C(=O)NCc1ccccc1)NO
17 µM	O=C(C[C@H](C(=O)N[C@@H](Cc1ccccc1)C(=O)NCc1ccccc1)c1ccccc1)NO
> 10 µM	O=C(C[C@H](C(=O)N[C@@H](Cc1ccccc1)C(=O)NCc1ccccc1)c1cccc2ccccc12)NO
4.1 µM	O=C(C[C@@H](CCc1ccccc1)C(=O)N[C@@H](Cc1ccccc1)C(=O)NCc1ccccc1)NO
0.03 µM	CC(C)C[C@H](CC(=O)NO)C(=O)N[C@@H](Cc1ccccc1)C(=O)NCc1ccccc1
> 10 µM	CC(C)C[C@@H](CC(=O)NO)C(=O)N[C@@H](Cc1ccccc1)C(=O)NCc1ccccc1
